The values below come from ChEMBL document CHEMBL5523668, “Elongation of N6-benzyladenosine scaffold via Pd-catalyzed C-C bond formation leads to derivatives with antiflaviviral activity” (Bioorg Med Chem, 2024).

The test system of data set [1] is Tick-borne encephalitis virus. As to the kind of experiment: Antiviral activity against TBEV infected in porcine PEK cells assessed as reduction in cytopathic effect by plaque reduction assay. The class given is functional, organism-based. A general note: Protection from cytopathic effect is a common read-out in antiviral testing.
Another data set concerns Yellow fever virus. As to the kind of experiment: Antiviral activity against YFV infected in African green monkey Vero cells assessed as reduction in cytopathic effect by plaque reduction assay. Format: functional, organism-based.
Data set [2] concerns West Nile virus. Put plainly: Antiviral activity against WNV infected in African green monkey Vero cells assessed as reduction in cytopathic effect by plaque reduction assay. The class given is functional, organism-based.
Data set [3] in a line: Cytotoxicity against porcine PEK cells assessed as reduction in cell viability after 7 days by resazurin staining based analysis. Format: toxicity, Sus scrofa. Particulars: pig, time 7 day. In general terms: The colour change of resazurin is a common sign of viable cells or microbes.
Data set [4] in a line: Cytotoxicity against African green monkey Vero cells assessed as reduction in cell viability after 7 days by resazurin staining based analysis. Format: toxicity. The note with it: chlorocebus sabaeus, time 7 day.
In data set [5] the test system is Tick-borne encephalitis virus. As to the kind of experiment: Antiviral activity against TBEV infected in porcine PS cells assessed as inhibition of virus induced cytopathic effect pre-infected with virus followed by compound addition and measured after 3 to 4 days by microscope based analysis. The class given is functional, organism-based.
Data set [6] can be described thus: Cytotoxicity against porcine PEK cells assessed as reduction in cell viability after 24 hrs by resazurin staining based analysis. The class given is toxicity, Sus scrofa. The note with it: pig.
Data set [7] is described as follows: Cytotoxicity against African green monkey Vero cells assessed as reduction in cell viability after 24 hrs by resazurin staining based analysis. Particulars: chlorocebus sabaeus. The class given is toxicity.
Data set [8] relates to West Nile virus. Put plainly: Antiviral activity against WNV infected in African green monkey Vero cells assessed as viral growth inhibition pre-infected with virus for 2 hrs followed by compound addition and measured 24 hrs post infection by time of addition assay. Format: functional, organism-based. The note with it: time 22.0 hrs.
For data set [9], the system named is West Nile virus. Put plainly: Antiviral activity against WNV infected in African green monkey Vero cells assessed as viral growth inhibition pre-infected with virus for 5 hrs followed by compound addition and measured 24 hrs post infection. The class given is functional, organism-based. Particulars: time 19.0 hrs.
Data set [10] deals with West Nile virus. Put plainly: Antiviral activity against WNV infected in African green monkey Vero cells assessed as viral growth inhibition pre-treated with compound for 2 hrs followed by viral infection and measured 24 hrs post infection. Format: functional, organism-based. The note with it: time 26.0 hrs.
In data set [11] the test system is West Nile virus. As to the kind of experiment: Antiviral activity against WNV infected in African green monkey Vero cells assessed as viral growth inhibition measured after 24 hrs. Format: functional, organism-based.
The test system of data set [12] is West Nile virus. Put plainly: Antiviral activity against WNV infected in African green monkey Vero cells assessed as viral growth inhibition pre-infected with virus for 2 hrs followed by compound addition and measured after compound washout at 5 hrs post infection. The class given is functional, organism-based. Particulars: time 3.0 hrs.
The subject of another data set is Enterovirus A71. Put plainly: Antiviral activity against human EV71 BrCr infected human RD cells assessed as reduction in cytopathic effect pretreated with cells followed by viral infection and measured after 3 to 4 days post infection. The class given is functional, organism-based. The note with it: Enterovirus A.
Data set [13] is described as follows: Cytotoxicity against human RD cells. Format: toxicity, cell-based.
The subject of data set [14] is Tick-borne encephalitis virus. Put plainly: Antiviral activity against TBEV infected in human A549 cells assessed as reduction in cytopathic effect pretreated with cells for 1 hr followed by viral infection and measured after 3 days. Format: functional, organism-based.
Data set [15] relates to Tick-borne encephalitis virus. As to the kind of experiment: Antiviral activity against TBEV infected in porcine PS cells assessed as r inhibition of virus induced cytopathic effect pretreated with cells for 24 hrs followed by viral infection for 24 hrs and measured after 72 hrs post infection. Format: functional, organism-based.
Data set [16] relates to Tick-borne encephalitis virus. As to the kind of experiment: Antiviral activity against TBEV infected in porcine PS cells pretreated with cells followed by viral infection and measured after 3 days post infection by microscope based analysis. Format: functional, organism-based.
Data set [17] relates to Tick-borne encephalitis virus. Put plainly: Antiviral activity against TBEV infected in human A549 cells assessed as inhibition of virus induced cytopathic effect. The class given is functional, organism-based.
Data set [18] can be described thus: Selectivity index, ratio of CC50 for human A549 cells to EC50 for TBEV infected in human A549 cells. Format: toxicity, cell-based. The note with it: read-out: Ratio CC50/EC50.
Data set [19] concerns West Nile virus. Put plainly: Antiviral activity against WNV NY99 infected in African green monkey Vero cells pretreated with cells for 16 hrs followed by viral infection for 1 hr and measured after 48 hrs by plaque assay. Format: functional, organism-based.
Data set [20] deals with West Nile virus. As to the kind of experiment: Antiviral activity against WNV infected in African green monkey Vero cells. Format: functional, organism-based.
The subject of data set [21] is Tick-borne encephalitis virus. Put plainly: Antiviral activity against TBEV infected in porcine PEK cells pre-infected for 1 hr followed by cell addition for 1 hrs and measured after 6 days. The class given is functional, organism-based.

Structures are written as SMILES. pEC50: −log10 of the molar value. Activity calls are given as the source filed them. The rule behind the calls is not given here.

As for `OC[C@H]1O[C@@H](n2cnc3c(NCc4cc(C(F)(F)F)cc(C(F)(F)F)c4)ncnc32)[C@H](O)[C@@H]1O`, the pEC50 (in general, the negative decadic logarithm of the EC50, by convention in mol/L) was less than 4.30 in [1], less than 4.30 in the data set with Yellow fever virus and 4.80 with West Nile virus [2]. For the same compound, the CC50 at 168 h in [3] and in data set [4] was more than 50 µM throughout.
Turning to `OC[C@H]1O[C@@H](n2cnc3c(NCc4ccc(C#CC5CC5)cc4)ncnc32)[C@H](O)[C@@H]1O`, the pEC50 in data set [1] was less than 4.30; in the data set on Yellow fever virus, less than 4.30; in the data set on West Nile virus [2], 4.49. In addition, the CC50 at 168 h in data set [3] and in data set [4] was more than 50 µM in each case.
On to `C[C@@]1(O)[C@H](O)[C@@H](CO)O[C@H]1n1cnc2c(N)ncnc21`, for which the pEC50 in data set [5] was 5.15.
For the compound `C[C@@]1(O)[C@H](O)[C@@H](CO)O[C@H]1n1ccc(N)nc1=O`, the pEC50 in [5] was 4.85.
Take `OC[C@H]1O[C@@H](n2cnc3c(NCc4ccc(C#Cc5cc(C(F)(F)F)cc(C(F)(F)F)c5)cc4)ncnc32)[C@H](O)[C@@H]1O`: the values for the pEC50 (in [1]; in the data set on Yellow fever virus; in the data set with West Nile virus [2]) were 5.66, 5.25 and 5.82, respectively. Besides, the CC50 (in general, the concentration at which the toxic effect on the cells reaches its halfway point) at 168 h in [3] came to 8.1 µM; in data set [4] it was 15.7 µM.
Regarding `OC[C@H]1O[C@@H](n2cnc3c(NCc4ccc(-c5cccc(C(F)(F)F)c5)cc4)ncnc32)[C@H](O)[C@@H]1O`, the pEC50 in data set [1] was 5.22; with Yellow fever virus, 4.51; in the data set on West Nile virus [2], 5.17. The values for the CC50 at 168 h in [3] and in [4] were 36.7 µM and more than 50 µM, respectively. For the same compound, the CC50 at 24 h in data set [6] and in data set [7] was more than 50 µM each time. Further, the result in the data set on West Nile virus [8] and with West Nile virus [9] was Active. Further, the result in the data set with West Nile virus [10], in the data set on West Nile virus [11] and in the data set on West Nile virus [12] was inactive.
As to `OC[C@H]1O[C@@H](n2cnc3c(NCc4ccc(-c5ccccc5C(F)(F)F)cc4)ncnc32)[C@H](O)[C@@H]1O`, the pEC50 is 4.77 in data set [1], 4.34 with Yellow fever virus and 4.62 in the data set with West Nile virus [2]. Moreover, the figures for the CC50 at 168 h in data set [3] and in data set [4] were more than 50 µM and more than 41 µM, respectively. Further, the CC50 at 24 h in data set [6] and in [7] was more than 50 µM in each case.
For `OC[C@H]1O[C@@H](n2cnc3c(NCc4ccccc4C(F)(F)F)ncnc32)[C@H](O)[C@@H]1O`, the pEC50 in [1] was less than 4.30; with Yellow fever virus, less than 4.30; with West Nile virus [2], 5.11. Moreover, the CC50 at 168 h in [3] and in data set [4] was more than 50 µM in each case.
As for `OC[C@H]1O[C@@H](n2cnc3c(NCc4c(F)cccc4F)ncnc32)[C@H](O)[C@@H]1O`, the pEC50 in the data set on Enterovirus A71 was 6.68. In addition, the cytotoxic concentration (CC50) in data set [13] was more than 245 µM.
In the case of `C#C[C@@]1(O)[C@H](O)[C@@H](CO)O[C@H]1n1ccc2c(N)ncnc21`, the pEC50 in [14] is 6.70.
Take `Nc1ncnc2c1ncn2[C@@H]1O[C@H](CO)[C@@H](F)[C@H]1O`: the pEC50 in [15] is 5.80.
For `OC[C@H]1O[C@@H](n2cnc3c(NCc4ccc(-c5ccccc5)cc4)ncnc32)[C@H](O)[C@@H]1O`, the pEC50 is less than 4.30 in data set [1], less than 4.30 in the data set with Yellow fever virus and 4.89 in the data set with West Nile virus [2]. In addition, the CC50 at 168 h in [3] and in data set [4] was more than 50 µM each time. Besides, the CC50 at 24 h in data set [6] and in [7] was more than 50 µM in each case.
On to `[N-]=[N+]=N[C@]1(CO)O[C@@H](n2ccc(N)nc2=O)[C@H](O)[C@@H]1O` [4'-AZIDOCYTIDINE], for which, in data set [16], the pEC50 is 5.57.
Take `OC[C@H]1O[C@@H](n2cnc3c(NCc4ccc(C#CC5=CCCCC5)cc4)ncnc32)[C@H](O)[C@@H]1O`: the pEC50 in [1] was 5.00; in the data set with Yellow fever virus, 4.62; in the data set with West Nile virus [2] it was 5.30. For the same compound, the figures for the CC50 at 168 h in data set [3] and in [4] were 36.6 µM and more than 50 µM, respectively. Further, the result with West Nile virus [8] and in the data set with West Nile virus [9] was Active. Moreover, the result with West Nile virus [10], in the data set with West Nile virus [11] and with West Nile virus [12] was inactive.
As for `OC[C@H]1O[C@@H](n2cnc3c(NCc4ccc(-c5ccc(C(F)(F)F)cc5)cc4)ncnc32)[C@H](O)[C@@H]1O`, the results for the pEC50 (in data set [1]; in the data set with Yellow fever virus; in the data set with West Nile virus [2]) were 5.33, 4.57 and 5.08, respectively. Moreover, the CC50 at 168 h in [3] worked out at 26 µM; in data set [4] it was 28.5 µM.
Consider `OC[C@H]1O[C@@H](n2cnc3c(NCc4ccc(C#Cc5ccccc5)cc4)ncnc32)[C@H](O)[C@@H]1O`, for which the pEC50 in data set [1] was 4.44; with Yellow fever virus it was 4.48; with West Nile virus [2] it was 5.01. In addition, the CC50 at 168 h in [3] and in data set [4] was more than 50 µM each time.
On to `CCC(CC)COC(=O)[C@H](C)N[P@](=O)(OC[C@H]1O[C@@](C#N)(c2ccc3c(N)ncnn23)[C@H](O)[C@@H]1O)Oc1ccccc1` [REMDESIVIR], for which the pEC50 was 5.68 in [17] (Tick-borne encephalitis virus, A549) and 5.46 in data set [17] (a549). In addition, in [18], the selectivity ratio was 4.8.
Turning to `OC[C@H]1O[C@@H](n2cnc3c(NCc4cccc(C(F)(F)F)c4)ncnc32)[C@H](O)[C@@H]1O`, the pEC50 in data set [1] was less than 4.30; in the data set on Yellow fever virus it was less than 4.30; with West Nile virus [2], 5.10. The CC50 at 168 h in data set [3] and in data set [4] was more than 50 µM each time. The compound further came in with a CC50 in [13] of more than 235 µM.
Turning to `C[C@@]1(O)[C@H](O)[C@@H](CO)O[C@H]1n1ccc2c(N)ncnc21` [BETA-2'-C-METHYL-7-DEAZA-ADENOSINE], the pEC50 in data set [5] is 5.29.
As for `OC[C@H]1O[C@@H](n2cnc3c(NCc4ccc(C#CC5CCCC5)cc4)ncnc32)[C@H](O)[C@@H]1O`, the pEC50 in data set [1] was 5.10; in the data set on Yellow fever virus, 4.75; with West Nile virus [2], 4.74. Moreover, the results for the CC50 at 168 h in [3] and in [4] were 37 µM and 38 µM, respectively.
For the compound `NC(=O)c1nc(F)cnc1O` [FAVIPIRAVIR], the CC50 at 168 h in data set [4] was more than 1000 µM. Also, the pEC50 in the data set with West Nile virus [19] was 4.03.
As to `OC[C@H]1O[C@@H](n2cnc3c(NCc4ccc(C(F)(F)F)cc4)ncnc32)[C@H](O)[C@@H]1O`, the negative-log EC50 (pEC50) was less than 4.30 in data set [1], less than 4.30 in the data set with Yellow fever virus and 5.15 in the data set with West Nile virus [2]. The CC50 at 168 h in [3] and in [4] was more than 50 µM in each case.
`Nc1onc(C(=O)OCC23CC4CC(CC(C4)C2)C3)c1CCc1ccccc1`: the values for the pEC50 (in the data set on Yellow fever virus; with West Nile virus [20]; in [21]) were 5.66, 5.74 and 5.74, respectively. Moreover, the CC50 at 168 h in data set [3] and in [4] was more than 100 µM in each case.
